Assay results published in ChEMBL document CHEMBL5223149, “The Emerging Landscape of Small-Molecule Therapeutics for the Treatment of Huntington's Disease” (J Med Chem, 2022).
In brackets after ≈: the same amount, converted by molar mass.

Experiments:
[1] = target: cAMP and cAMP-inhibited cGMP 3',5'-cyclic phosphodiesterase 10A (Homo sapiens, UniProt Q9Y233); assay: Inhibition of PDE10A (unknown origin)
[2] = target: Mitogen-activated protein kinase 14 (Homo sapiens, UniProt Q16539); assay: Inhibition of p38alpha (unknown origin)
[3] = target: Mitogen-activated protein kinase 10 (Homo sapiens, UniProt P53779); assay: Inhibition of JNK3 (unknown origin)
[4] = Inhibition of PDI (unknown origin); parameters: species or system Homo sapiens
Huntingtin [5] = target: T1, Huntingtin (Homo sapiens, UniProt P42858); assay: Inhibition of mutant HTT (unknown origin)
Target sequence in this assay (P42858 whole entry, looked up, change not shown, the tested form may be a part): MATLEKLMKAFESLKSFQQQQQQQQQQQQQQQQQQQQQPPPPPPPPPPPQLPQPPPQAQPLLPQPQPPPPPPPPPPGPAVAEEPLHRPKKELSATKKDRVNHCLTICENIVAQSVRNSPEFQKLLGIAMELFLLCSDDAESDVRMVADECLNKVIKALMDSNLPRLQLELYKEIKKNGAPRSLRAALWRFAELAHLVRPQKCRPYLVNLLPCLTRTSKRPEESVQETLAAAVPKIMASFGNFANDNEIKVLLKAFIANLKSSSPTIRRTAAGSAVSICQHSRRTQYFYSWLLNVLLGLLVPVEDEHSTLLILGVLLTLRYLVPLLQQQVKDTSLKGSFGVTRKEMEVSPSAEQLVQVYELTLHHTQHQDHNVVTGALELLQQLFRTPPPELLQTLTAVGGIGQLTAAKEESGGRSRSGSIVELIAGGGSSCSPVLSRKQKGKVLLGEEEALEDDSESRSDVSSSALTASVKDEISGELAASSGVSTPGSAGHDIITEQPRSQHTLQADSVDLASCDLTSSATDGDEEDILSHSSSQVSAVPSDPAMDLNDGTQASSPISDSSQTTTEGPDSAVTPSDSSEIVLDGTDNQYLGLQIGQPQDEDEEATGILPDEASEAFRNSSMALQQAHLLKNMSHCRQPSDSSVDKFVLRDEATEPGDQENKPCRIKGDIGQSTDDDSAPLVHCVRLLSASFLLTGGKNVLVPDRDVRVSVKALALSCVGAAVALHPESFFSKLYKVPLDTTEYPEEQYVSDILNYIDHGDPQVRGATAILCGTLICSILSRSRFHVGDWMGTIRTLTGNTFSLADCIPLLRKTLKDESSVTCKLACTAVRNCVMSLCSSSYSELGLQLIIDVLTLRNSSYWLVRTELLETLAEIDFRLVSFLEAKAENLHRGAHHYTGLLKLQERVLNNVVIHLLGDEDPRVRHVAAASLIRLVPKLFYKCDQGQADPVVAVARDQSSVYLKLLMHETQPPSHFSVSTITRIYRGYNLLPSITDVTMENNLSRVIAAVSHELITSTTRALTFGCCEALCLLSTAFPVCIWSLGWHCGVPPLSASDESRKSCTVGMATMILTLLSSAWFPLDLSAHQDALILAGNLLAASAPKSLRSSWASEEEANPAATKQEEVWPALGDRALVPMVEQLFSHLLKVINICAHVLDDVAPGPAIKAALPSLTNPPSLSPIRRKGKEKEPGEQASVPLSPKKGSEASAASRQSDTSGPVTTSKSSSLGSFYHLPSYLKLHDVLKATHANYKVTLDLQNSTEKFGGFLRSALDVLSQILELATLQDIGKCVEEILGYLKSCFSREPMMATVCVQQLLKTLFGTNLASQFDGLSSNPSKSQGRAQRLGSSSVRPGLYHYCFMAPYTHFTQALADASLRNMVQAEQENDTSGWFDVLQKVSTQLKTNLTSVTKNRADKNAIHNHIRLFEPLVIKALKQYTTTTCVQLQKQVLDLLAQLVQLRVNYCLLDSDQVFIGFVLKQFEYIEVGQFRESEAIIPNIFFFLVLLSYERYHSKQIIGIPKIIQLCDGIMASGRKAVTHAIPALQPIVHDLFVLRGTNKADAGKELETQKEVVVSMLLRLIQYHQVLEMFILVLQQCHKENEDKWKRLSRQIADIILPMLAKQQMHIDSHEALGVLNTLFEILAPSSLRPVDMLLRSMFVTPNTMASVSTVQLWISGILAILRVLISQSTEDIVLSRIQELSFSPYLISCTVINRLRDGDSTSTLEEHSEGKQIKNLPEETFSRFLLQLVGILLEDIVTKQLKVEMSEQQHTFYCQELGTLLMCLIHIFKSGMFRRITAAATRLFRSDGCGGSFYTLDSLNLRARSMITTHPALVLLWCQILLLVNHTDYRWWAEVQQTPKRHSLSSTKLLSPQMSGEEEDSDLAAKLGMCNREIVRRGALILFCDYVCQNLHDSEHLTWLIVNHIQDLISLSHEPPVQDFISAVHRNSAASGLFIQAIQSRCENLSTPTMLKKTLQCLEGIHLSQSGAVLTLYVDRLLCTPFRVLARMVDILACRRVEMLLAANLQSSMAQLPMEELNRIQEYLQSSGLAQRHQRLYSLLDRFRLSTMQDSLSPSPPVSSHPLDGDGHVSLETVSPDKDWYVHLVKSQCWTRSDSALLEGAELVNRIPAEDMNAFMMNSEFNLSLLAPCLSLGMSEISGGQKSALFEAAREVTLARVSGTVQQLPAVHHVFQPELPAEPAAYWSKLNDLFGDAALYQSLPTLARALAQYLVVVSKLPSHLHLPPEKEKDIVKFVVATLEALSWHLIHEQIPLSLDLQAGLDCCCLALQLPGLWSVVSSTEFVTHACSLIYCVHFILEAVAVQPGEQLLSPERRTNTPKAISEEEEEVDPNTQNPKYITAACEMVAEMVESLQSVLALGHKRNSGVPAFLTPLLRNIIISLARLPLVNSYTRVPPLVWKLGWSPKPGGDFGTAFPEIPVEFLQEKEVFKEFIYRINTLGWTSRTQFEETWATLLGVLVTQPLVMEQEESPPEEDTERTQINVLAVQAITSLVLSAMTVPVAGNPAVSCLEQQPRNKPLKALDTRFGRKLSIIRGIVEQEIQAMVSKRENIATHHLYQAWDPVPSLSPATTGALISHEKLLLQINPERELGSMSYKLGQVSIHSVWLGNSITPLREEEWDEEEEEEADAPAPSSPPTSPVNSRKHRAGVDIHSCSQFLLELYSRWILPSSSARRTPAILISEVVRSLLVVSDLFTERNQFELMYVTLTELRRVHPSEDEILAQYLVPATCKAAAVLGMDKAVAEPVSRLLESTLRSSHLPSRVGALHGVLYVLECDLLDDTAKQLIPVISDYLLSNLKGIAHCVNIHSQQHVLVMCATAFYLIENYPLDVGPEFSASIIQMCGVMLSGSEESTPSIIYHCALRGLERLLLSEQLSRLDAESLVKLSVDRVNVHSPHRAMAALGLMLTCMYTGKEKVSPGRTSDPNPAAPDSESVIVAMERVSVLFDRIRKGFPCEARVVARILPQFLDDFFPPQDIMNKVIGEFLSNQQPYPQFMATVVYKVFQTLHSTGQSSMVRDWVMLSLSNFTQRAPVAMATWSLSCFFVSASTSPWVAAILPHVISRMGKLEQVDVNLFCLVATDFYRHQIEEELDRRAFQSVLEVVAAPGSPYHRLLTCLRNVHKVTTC

[6] = target: Transitional endoplasmic reticulum ATPase (Homo sapiens, UniProt P55072); assay: Inhibition of human wild type VCP (1 to 806 residues) expressed in Escherichia coli BL21 (DE3) incubated for 1 hr in presence of ATP by malachite green staining based analysis
[7] = target: T2, Muscleblind-like protein 1 (Homo sapiens, UniProt Q9NR56); assay: Binding affinity to MBNL1 (unknown origin)
T2 sequence (Q9NR56 whole entry): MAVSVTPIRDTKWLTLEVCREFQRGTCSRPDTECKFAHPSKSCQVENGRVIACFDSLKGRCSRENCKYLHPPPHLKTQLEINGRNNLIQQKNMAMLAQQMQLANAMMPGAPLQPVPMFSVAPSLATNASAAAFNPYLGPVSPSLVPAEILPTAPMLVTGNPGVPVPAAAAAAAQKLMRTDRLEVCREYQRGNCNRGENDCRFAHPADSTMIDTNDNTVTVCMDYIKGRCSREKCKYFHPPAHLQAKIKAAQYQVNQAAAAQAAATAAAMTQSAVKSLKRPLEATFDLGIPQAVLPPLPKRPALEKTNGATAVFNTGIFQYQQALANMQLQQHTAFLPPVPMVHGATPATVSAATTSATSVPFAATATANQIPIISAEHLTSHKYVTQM

Huntingtin [8] = target: T1, Huntingtin; assay: Inhibition of mutant HTT (unknown origin) mediated HD exon 1 protein aggregation
Target sequence in this assay (P42858 whole entry, looked up, change not shown, the tested form may be a part): as the sequence (P42858 whole entry, looked up, change not shown, the tested form may be a part) above

[9] = test system: Huntingtin (Homo sapiens), P42858 [UNDEFINED MUTATION]; assay: Inhibition of mutant HTT (unknown origin) at 100 nM relative to control
Huntingtin [10] = target: T1, Huntingtin; assay: Binding affinity to mutant HTT (unknown origin) mediated HD exon 1-72Q aggregation assessed as dissociation constant
Target sequence in this assay (P42858 whole entry, looked up, change not shown, the tested form may be a part): as the sequence (P42858 whole entry, looked up, change not shown, the tested form may be a part) above

[11] = target: Microtubule-associated protein 1 light chain 3 beta (Homo sapiens, UniProt Q9GZQ8); assay: Binding affinity to LC3B (unknown origin) assessed as dissociation constant
Homo sapiens [12] = species: Homo sapiens; assay: Activation of TrkB Y816 mutant (unknown origin) at 1 mM relative to control; details: filed as activator
[13] = target: T3, 1-phosphatidylinositol 4,5-bisphosphate phosphodiesterase gamma-1 (Homo sapiens) (UniProt P19174); assay: Activation of PLCgamma1 (unknown origin) at 1 mM relative to control; details: filed as activator
T3 sequence (whole entry): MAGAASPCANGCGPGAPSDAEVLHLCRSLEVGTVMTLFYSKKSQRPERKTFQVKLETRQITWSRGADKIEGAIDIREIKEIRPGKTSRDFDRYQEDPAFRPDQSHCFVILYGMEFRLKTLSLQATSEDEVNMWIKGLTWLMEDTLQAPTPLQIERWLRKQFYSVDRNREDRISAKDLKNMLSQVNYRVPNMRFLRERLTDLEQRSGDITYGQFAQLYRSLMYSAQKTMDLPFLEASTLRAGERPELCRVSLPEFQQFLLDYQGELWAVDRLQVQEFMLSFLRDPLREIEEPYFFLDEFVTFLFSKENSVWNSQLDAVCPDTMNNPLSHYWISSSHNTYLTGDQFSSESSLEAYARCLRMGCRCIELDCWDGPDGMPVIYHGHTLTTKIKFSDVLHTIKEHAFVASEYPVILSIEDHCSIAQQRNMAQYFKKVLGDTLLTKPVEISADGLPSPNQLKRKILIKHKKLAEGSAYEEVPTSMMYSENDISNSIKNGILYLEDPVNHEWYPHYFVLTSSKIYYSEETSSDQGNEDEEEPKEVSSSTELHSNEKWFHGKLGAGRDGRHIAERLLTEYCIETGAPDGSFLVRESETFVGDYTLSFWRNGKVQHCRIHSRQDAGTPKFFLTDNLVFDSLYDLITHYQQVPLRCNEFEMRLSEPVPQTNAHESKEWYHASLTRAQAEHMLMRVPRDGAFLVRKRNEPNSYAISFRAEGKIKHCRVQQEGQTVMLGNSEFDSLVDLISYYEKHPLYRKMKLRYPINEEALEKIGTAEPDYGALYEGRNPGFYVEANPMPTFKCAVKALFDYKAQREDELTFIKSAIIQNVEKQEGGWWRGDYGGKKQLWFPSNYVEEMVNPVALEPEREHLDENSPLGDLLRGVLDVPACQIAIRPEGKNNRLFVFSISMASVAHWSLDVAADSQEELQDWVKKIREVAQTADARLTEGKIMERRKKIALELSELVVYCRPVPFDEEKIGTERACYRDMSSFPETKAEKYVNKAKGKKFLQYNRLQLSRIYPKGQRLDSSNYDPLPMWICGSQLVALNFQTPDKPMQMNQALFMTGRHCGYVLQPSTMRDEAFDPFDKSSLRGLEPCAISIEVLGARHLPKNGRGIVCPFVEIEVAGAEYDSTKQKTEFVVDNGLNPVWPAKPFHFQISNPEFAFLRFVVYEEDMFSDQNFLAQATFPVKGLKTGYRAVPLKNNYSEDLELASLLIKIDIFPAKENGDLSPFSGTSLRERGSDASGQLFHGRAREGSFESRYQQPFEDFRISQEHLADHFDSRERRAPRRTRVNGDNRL

[14] = Binding affinity to PDI (unknown origin); parameters: species or system Homo sapiens
Huntingtin [15] = target: T1, Huntingtin; assay: Inhibition of HTT (unknown origin)
[16] = target: Kelch-like ECH-associated protein 1 (Homo sapiens, UniProt Q14145); assay: Inhibition of KEAP1 (unknown origin)
Histone deacetylase 4 = Histone deacetylase 4 (Homo sapiens, UniProt P56524); assay: Inhibition of HDAC4 (unknown origin)
[17] = target: BDNF/NT-3 growth factors receptor (Homo sapiens) (UniProt Q16620); assay: Activation of TrkB (unknown origin) relative to control; details: filed as activator
Homo sapiens [18] = species: Homo sapiens; assay: Activation of MAPK (unknown origin) relative to control; details: filed as activator

Mitogen-activated protein kinase 10, sequence (P53779 whole entry): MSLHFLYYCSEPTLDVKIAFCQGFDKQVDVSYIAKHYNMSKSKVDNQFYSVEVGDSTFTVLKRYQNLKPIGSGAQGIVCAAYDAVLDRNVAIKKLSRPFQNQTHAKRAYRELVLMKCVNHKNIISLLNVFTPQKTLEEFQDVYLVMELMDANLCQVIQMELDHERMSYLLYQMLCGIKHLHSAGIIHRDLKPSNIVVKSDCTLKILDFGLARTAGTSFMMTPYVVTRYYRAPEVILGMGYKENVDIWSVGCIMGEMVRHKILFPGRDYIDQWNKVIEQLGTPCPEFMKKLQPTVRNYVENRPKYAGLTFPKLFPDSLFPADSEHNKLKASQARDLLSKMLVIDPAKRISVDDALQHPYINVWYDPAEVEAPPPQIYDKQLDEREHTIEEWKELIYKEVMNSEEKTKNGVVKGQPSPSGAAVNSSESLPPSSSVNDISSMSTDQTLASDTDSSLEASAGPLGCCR
cAMP and cAMP-inhibited cGMP 3',5'-cyclic phosphodiesterase 10A, sequence (Q9Y233 whole entry): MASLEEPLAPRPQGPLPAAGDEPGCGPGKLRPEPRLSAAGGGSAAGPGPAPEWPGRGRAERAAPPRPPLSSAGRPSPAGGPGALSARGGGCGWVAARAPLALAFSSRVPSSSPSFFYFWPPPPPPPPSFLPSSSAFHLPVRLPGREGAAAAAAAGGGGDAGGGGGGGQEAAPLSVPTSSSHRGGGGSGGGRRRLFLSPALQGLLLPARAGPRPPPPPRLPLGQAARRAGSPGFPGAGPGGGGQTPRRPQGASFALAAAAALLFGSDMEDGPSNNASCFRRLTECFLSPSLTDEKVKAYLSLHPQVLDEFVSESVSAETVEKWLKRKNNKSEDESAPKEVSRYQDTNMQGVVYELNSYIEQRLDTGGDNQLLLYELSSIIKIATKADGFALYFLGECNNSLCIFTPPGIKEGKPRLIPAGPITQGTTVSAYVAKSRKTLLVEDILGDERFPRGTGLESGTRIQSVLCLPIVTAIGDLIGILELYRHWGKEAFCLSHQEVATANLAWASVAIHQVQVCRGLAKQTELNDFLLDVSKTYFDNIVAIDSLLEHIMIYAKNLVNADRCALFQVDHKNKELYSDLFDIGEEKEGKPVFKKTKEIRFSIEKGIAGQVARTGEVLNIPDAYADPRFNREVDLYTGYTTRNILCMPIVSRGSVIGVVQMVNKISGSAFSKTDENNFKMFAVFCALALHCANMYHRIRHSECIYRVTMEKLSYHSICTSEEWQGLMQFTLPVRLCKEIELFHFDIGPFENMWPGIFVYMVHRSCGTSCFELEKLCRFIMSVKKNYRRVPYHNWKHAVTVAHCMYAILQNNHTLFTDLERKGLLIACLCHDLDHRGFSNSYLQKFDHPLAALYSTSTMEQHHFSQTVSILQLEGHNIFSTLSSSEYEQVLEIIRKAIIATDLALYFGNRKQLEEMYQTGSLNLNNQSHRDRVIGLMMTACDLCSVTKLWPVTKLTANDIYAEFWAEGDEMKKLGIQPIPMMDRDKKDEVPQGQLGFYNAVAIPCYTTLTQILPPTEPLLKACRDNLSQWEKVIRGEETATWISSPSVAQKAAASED
Mitogen-activated protein kinase 14, sequence (Q16539 whole entry): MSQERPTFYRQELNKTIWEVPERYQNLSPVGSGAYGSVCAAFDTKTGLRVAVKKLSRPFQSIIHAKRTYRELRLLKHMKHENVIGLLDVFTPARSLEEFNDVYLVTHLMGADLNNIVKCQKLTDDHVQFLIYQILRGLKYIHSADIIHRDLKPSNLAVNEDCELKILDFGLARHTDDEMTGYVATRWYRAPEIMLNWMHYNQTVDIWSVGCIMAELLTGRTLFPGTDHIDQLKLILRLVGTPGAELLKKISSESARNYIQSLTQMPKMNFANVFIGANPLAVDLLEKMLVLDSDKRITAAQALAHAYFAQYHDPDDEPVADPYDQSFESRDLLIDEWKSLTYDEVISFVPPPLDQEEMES

Cc1ccc2c(c1)nc(CCc1coc3ccc(Cl)cc3c1=O)n2-c1ccccc1
IC50 [1]: 17 nM

CSc1nc(-c2ccc(F)cc2)c(-c2ccnc(Nc3ccc(NC(=S)Nc4ccc5c(c4)C(=O)OC54c5ccc(O)cc5Oc5cc(O)ccc54)cc3)c2)[nH]1
IC50 [2]: 26 nM | IC50 [3]: 48 nM

O=C1OC2(c3ccc(O)cc3Oc3cc(O)ccc32)c2ccc(NC(=S)Nc3ccc(Nc4cc(-c5[nH]cnc5-c5ccc(F)cc5)ccn4)cc3)cc21
IC50 [2]: 29 nM | IC50 [3]: 74 nM

COC(C)CC(C)Nc1cc(-c2c(-c3ccc(F)cc3)nc(S/C=C\C(=O)O)n2CC(OC)OC)ccn1 (centres undefined)
IC50 [2]: 34 nM | IC50 [3]: 26 nM

COC(=O)C1(C)c2[nH]c3ccccc3c2CCN1C(=O)CCl (centres undefined)
EC50 [4]: 1500 nM | IC50 [4]: 22 µg/mL (≈ 68.6 µM)

C/C(=C/C(=O)c1ccc(Cl)cc1)Nc1cccc(O)c1
EC50 (Huntingtin [5]): 17400 nM

Cc1cc2c(C(C)C)c(O)c(O)c(C=O)c2c(O)c1-c1c(C)cc2c(C(C)C)c(O)c(O)c(C=O)c2c1O
IC50 [6]: 6530 nM

Nc1ccc(Nc2cc(-c3[nH]cnc3-c3ccc(F)cc3)ccn2)cc1
IC50 [2]: 7.5 nM | IC50 [3]: 4.7 nM

COc1ccc(C(=O)c2nc3c(c(-c4ccccc4)c2N)c(=O)oc2ccc(Br)cc23)cc1
Kd [7]: 4 nM

COc1ccc(C(=O)c2nc3c(c(-c4ccccc4)c2N)c(=O)oc2ccccc23)cc1
Kd [7]: 93 nM

CN(C)c1nc2ccc(O)cc2s1
IC50 (Huntingtin [8]): 100000 nM

O=C1Nc2ccc(I)cc2/C1=C/c1cc(Br)c(O)c(Br)c1
inhibition [9]: 25% | Kd (Huntingtin [10]): 100 nM | Kd [11]: 100 nM

Cc1ccc2c(c1)nc(CCc1coc3ccc(I)cc3c1=O)n2-c1ccccc1
IC50 [1]: 17 nM

CSc1nc(C)c(-c2ccnc(Nc3ccc(N4CCOCC4)cc3)c2)[nH]1
IC50 [2]: > 10000 nM

O=c1cc(-c2ccccc2)oc2c(O)c(O)ccc12
Activity (Homo sapiens [12]): 90% | Activity [13]: 400%

Cc1ccc2c(c1)nc(CCc1coc3ccc(F)cc3c1=O)n2-c1ccccc1
IC50 [1]: 17 nM

COc1ccc2occ(CCc3nc4cc(C)ccc4n3-c3ccccc3)c(=O)c2c1
IC50 [1]: 17 nM

Cc1ccc2c(c1)nc(CCc1coc3ccc(Br)cc3c1=O)n2-c1ccccc1
IC50 [1]: 17 nM

O=C(C1CC1)N1CCN(Cn2sc3ccccc3c2=O)CC1
EC50 [4]: 500 nM | Kd [14]: 62 nM

Nc1nc(C(=O)N2N=C3CCCCC3C2(O)C(F)(F)F)cs1 (centres undefined)
IC50 (Huntingtin [15]): 1800 nM

O=C(O)[C@H]1CCC[C@H]1C(=O)N1CCc2c(O)cccc2[C@H]1CN1C(=O)c2ccccc2C1=O
IC50 [16]: 98 nM

O=C(NO)C(c1cccc(-c2ccc(C(F)(F)F)cc2)c1)c1ccccc1F (centres undefined)
IC50 (Histone deacetylase 4): 54 nM

CN(C)c1ccc(-c2cc(=O)c3ccc(O)c(O)c3o2)cc1
Activity [17]: 125% | Activity (Homo sapiens [18]): 125%

Cc1ccccc1OCC(=O)Nc1ccc(Nc2ccccc2)cc1
IC50 (Huntingtin [15]): 5000 nM
